Test results published in US12121524B2, “DNA-PK inhibitors” (VERTEX PHARMACEUTICALS INCORPORATED, priority 2018, dated 2024).

What follows are compounds tested against DNA-PK (Homo sapiens, UniProt P78527) (assay: DNA-PK inhibition assay (standard radiometric 33P-ATP kinase assay)). Details: 100 μM ATP, approx. 6 nM DNA-PK.
Type: biochemical
Method: Compounds were screened for their ability to inhibit DNA-PK kinase using a standard radiometric assay. Briefly, in this kinase assay the transfer of the terminal ^33P-phosphate in ^33P-ATP to a peptide substrate is interrogated. The assay was carried out in 384-well plates to a final volume of 50 μL per well containing approximately 6 nM DNA-PK, 50 mM HEPES (pH 7.5), 10 mM MgCl2, 25 mM NaCl, 0.01% BSA, 1 mM DTT, 10 μg/mL sheared double-stranded DNA (obtained from Sigma), 0.8 mg/mL DNA-PK peptide (Glu-Pro-Pro-Leu-Ser-Gln-Glu-Ala-Phe-Ala-Asp-Leu-Trp-Lys-Lys-Lys, obtained from American Peptide), and 100 μM ATP.
Accordingly, compounds of the invention were dissolved in DMSO to make 10 mM initial stock solutions. Serial dilutions in DMSO were then made to obtain the final solutions for the assay. A 0.75 μL aliquot of DMSO or inhibitor in DMSO was added to each well, followed by the addition of ATP substrate solution containing ^33P-ATP (obtained from Perkin Elmer). The reaction was started by the addition of DNA-PK, peptide and ds-DNA. After 45 min, the reaction was quenched with 25 μL of 5% phosphoric acid. The reaction mixture was transferred to MultiScreen HTS 384-well PH plates (obtained from Millipore), allowed to bind for one hour, and washed three times with 1% phosphoric acid. Following the addition of 50 μL of Ultima Gold™ high efficiency scintillant (obtained from Perkin Elmer), the samples were counted in a Packard TopCount NXT Microplate Scintillation and Luminescence Counter (Packard BioScience). The Ki values were calculated using Microsoft Excel Solver macros to fit the data to the kinetic model for competitive tight-binding inhibition.

Ki, < 100 nM:
COCc1cnc(N[C@H]2CC[C@@H](Oc3cc(N4CCOCC4)cc4nccnc34)CC2)nc1 [Compound 161]
O[C@H](c1cnc(N[C@H]2CC[C@@H](Oc3cc(N4CCOCC4)cc4nccnc34)CC2)nc1)C(F)(F)F [Compound 235]
NC(=O)c1cnc(N[C@H]2CC[C@@H](Oc3cc(N4CCOCC4)cc4nccnc34)CC2)nc1 [Compound 65]
COc1nc(Cl)cc(N[C@H]2CC[C@@H](Oc3cc(N4CCOCC4)cc4nccnc34)CC2)n1 [Compound 219]
COc1cnc(N[C@H]2CC[C@@H](Oc3cc(N4CCOCC4)cc4nccnc34)CC2)nc1 [Compound 134, 5-methoxy-N-((cis)-4-((7-morpholinoquinoxalin-5-yl)oxy)cyclohexyl)pyrimidin-2-amine]
Cc1cc(C#N)cnc1N[C@H]1CC[C@@H](Oc2cc(N3CCOCC3)cc3nccnc23)CC1 [Compound 242]
c1cnc2c(O[C@H]3CC[C@@H](Nc4ncc(C5CC5)cn4)CC3)cc(N3CCOCC3)cc2n1 [Compound 109]
Cc1cnc(N[C@H]2CC[C@@H](Oc3cc(N4CCOCC4)cc4nccnc34)CC2)nc1N1CCCCC1 [Compound 567]
Cc1ccnc(N[C@H]2CC[C@@H](Oc3cc(N4CCOCC4)cc4nccnc34)CC2)n1 [Compound 246]
CNc1cc(N[C@H]2CC[C@@H](Oc3cc(N4CCOCC4)cc4nccnc34)CC2)ncn1 [Compound 205]
c1cnc(N[C@H]2CC[C@@H](Oc3cc(N4CCOCC4)cc4nccnc34)CC2)nc1 [Compound 28, N-((cis)-4-((7-morpholinoquinoxalin-5-yl)oxy)cyclohexyl)pyrimidin-2-amine]
Fc1nccc(N[C@H]2CC[C@@H](Oc3cc(N4CCOCC4)cc4nccnc34)CC2)n1 [Compound 50]
N#Cc1cccc(N[C@H]2CC[C@@H](Oc3cc(N4CCOCC4)cc4nccnc34)CC2)n1 [Compound 195]
CN1CCN(c2ccc(C(=O)N[C@H]3CC[C@@H](Oc4cc(N5CCOCC5)cc5nccnc45)CC3)nc2)CC1 [Compound 198]
CC(C)NC(=O)c1cnc(N[C@H]2CC[C@@H](Oc3cc(N4CCOCC4)cc4nccnc34)CC2)nc1 [Compound 162]
Cc1ccc(N[C@H]2CC[C@@H](Oc3cc(N4CCOCC4)cc4nccnc34)CC2)nc1 [Compound 256]
Fc1cc(N[C@H]2CC[C@@H](Oc3cc(N4CCOCC4)cc4nccnc34)CC2)ncn1 [Compound 51]
O=C(O)c1ccnc(N[C@H]2CC[C@@H](Oc3cc(N4CCOCC4)cc4nccnc34)CC2)n1 [Compound 93]
CC(C)(CO)Nc1ccnc(N[C@H]2CC[C@@H](Oc3cc(N4CCOCC4)cc4nccnc34)CC2)n1 [Compound 264]
c1ccc(N[C@H]2CC[C@@H](Oc3cc(N4CCOCC4)cc4nccnc34)CC2)nc1 [Compound 254]
O=C(O)c1cnc(N[C@H]2CC[C@@H](Oc3cc(N4CCOCC4)cc4nccnc34)CC2)nc1 [Compound 69]
O=C(N[C@H]1CC[C@@H](Oc2cc(N3CCOCC3)cc3nccnc23)CC1)C1CC1 [Compound 61]
CCOc1cc(N[C@H]2CC[C@@H](Oc3cc(N4CCOCC4)cc4nccnc34)CC2)nc(C)n1 [Compound 644]
Oc1cnc(N[C@H]2CC[C@@H](Oc3cc(N4CCOCC4)cc4nccnc34)CC2)nc1 [Compound 158]
CN(C)C(=O)c1ccc(N[C@H]2CC[C@@H](Oc3cc(N4CCOCC4)cc4nccnc34)CC2)nc1 [Compound 145]
c1cnc(N[C@H]2CC[C@@H](Oc3cc(N4CCOCC4)cc4nccnc34)CC2)cn1 [Compound 33]
COC(=O)c1cc(C)nc(N[C@H]2CC[C@@H](Oc3cc(N4CCOCC4)cc4nccnc34)CC2)n1 [Compound 565]
OCc1cnc(N[C@H]2CC[C@@H](Oc3cc(N4CCOCC4)cc4nccnc34)CC2)nc1 [Compound 94]
Cc1nc(N[C@H]2CC[C@@H](Oc3cc(N4CCOCC4)cc4nccnc34)CC2)ccc1C#N [Compound 241]
CN1CCN(c2ncc(C(=O)N[C@H]3CC[C@@H](Oc4cc(N5CCOCC5)cc5nccnc45)CC3)cn2)CC1 [Compound 199]
O[C@@H](c1cnc(N[C@H]2CC[C@@H](Oc3cc(N4CCOCC4)cc4nccnc34)CC2)nc1)C(F)(F)F [Compound 236]
Cc1cc(N[C@H]2CC[C@@H](Oc3cc(N4CCOCC4)cc4nccnc34)CC2)ncn1 [Compound 265]
CN(C)c1cnc(N[C@H]2CC[C@@H](Oc3cc(N4CCOCC4)cc4nccnc34)CC2)nc1 [Compound 67]
O=C(O)c1cnc(N[C@H]2CC[C@@H](Nc3cc(N4CCOCC4)cc4nccnc34)CC2)nc1 [Compound 29]
Nc1ccc(N[C@H]2CC[C@@H](Oc3cc(N4CCOCC4)cc4nccnc34)CC2)nc1 [Compound 197]
COCc1cc(N[C@H]2CC[C@@H](Oc3cc(N4CCOCC4)cc4nccnc34)CC2)ncn1 [Compound 225]
c1cnc(O[C@H]2CC[C@@H](Nc3cc(N4CCOCC4)cc4nccnc34)CC2)nc1 [Compound 46]
CCc1cnc(N[C@H]2CC[C@@H](Oc3cc(N4CCOCC4)cc4nccnc34)CC2)nc1 [Compound 208]
CN(C)c1nc(N[C@H]2CC[C@@H](Oc3cc(N4CCOCC4)cc4nccnc34)CC2)ncc1F [Compound 269]
CN(C)C(=O)c1cnc(N[C@H]2CC[C@@H](Oc3cc(N4CCOCC4)cc4nccnc34)CC2)nc1 [Compound 72]
N#Cc1cccnc1N[C@H]1CC[C@@H](Oc2cc(N3CCOCC3)cc3nccnc23)CC1 [Compound 87]
COc1nc(C)nc(N[C@H]2CC[C@@H](Oc3cc(N4CCOCC4)cc4nccnc34)CC2)n1 [Compound 604]
N#Cc1nccc(N[C@H]2CC[C@@H](Oc3cc(N4CCOCC4)cc4nccnc34)CC2)n1 [Compound 203]
COc1cc(N[C@H]2CC[C@@H](Oc3cc(N4CCOCC4)cc4nccnc34)CC2)nc(OC)n1 [Compound 245]
CCOCCOc1cnc(N[C@H]2CC[C@@H](Oc3cc(N4CCOCC4)cc4nccnc34)CC2)nc1 [Compound 66]
COCCNc1cc(N[C@H]2CC[C@@H](Oc3cc(N4CCOCC4)cc4nccnc34)CC2)ncn1 [Compound 263]
c1cncc(N[C@H]2CC[C@@H](Oc3cc(N4CCOCC4)cc4nccnc34)CC2)c1 [Compound 272]
c1cc(N[C@H]2CC[C@@H](Oc3cc(N4CCOCC4)cc4nccnc34)CC2)ccn1 [Compound 273]
Fc1c(Cl)ncnc1N[C@H]1CC[C@@H](Oc2cc(N3CCOCC3)cc3nccnc23)CC1 [Compound 277]
CC(C)Oc1cnc(N[C@H]2CC[C@@H](Oc3cc(N4CCOCC4)cc4nccnc34)CC2)nc1 [Compound 247]
OC1CCN(c2ccnc(N[C@H]3CC[C@@H](Oc4cc(N5CCOCC5)cc5nccnc45)CC3)n2)C1 (stereo partly shown) [Compound 187]
O=C(O)c1ccnc(N[C@H]2CC[C@@H](Oc3cc(N4CCOCC4)cc4nccnc34)CC2)c1 [Compound 210]
Clc1nc(N[C@H]2CC[C@@H](Oc3cc(N4CCOCC4)cc4nccnc34)CC2)nc(C2CC2)n1 [Compound 605]
Fc1ccc(N[C@H]2CC[C@@H](Oc3cc(N4CCOCC4)cc4nccnc34)CC2)nn1 [Compound 60]
Fc1cc(F)nc(N[C@H]2CC[C@@H](Oc3cc(N4CCOCC4)cc4nccnc34)CC2)n1 [Compound 104]
COC(=O)c1ccc(N[C@H]2CC[C@@H](Oc3cc(N4CCOCC4)cc4nccnc34)CC2)nc1 [Compound 146]
Fc1cnc(N[C@H]2CC[C@@H](Oc3cc(N4CCOCC4)cc4nccnc34)CC2)nc1 [Compound 37]
OCc1ccc(N[C@H]2CC[C@@H](Oc3cc(N4CCOCC4)cc4nccnc34)CC2)nc1 [Compound 160]
